Experimental findings from patent publication US20250231185A1, “Coronavirus T Cell Epitopes, Megapools and Uses Thereof” (La Jolla Institute for Immunology, priority 2021, published 2025) are described below.

The test system of the assay is CD4+ T cells. In words: Meta-analysis of published SARS-CoV-2 CD4 T cell epitope data curated in the IEDB (25 studies). Type of assay: cell-based, human. As to conditions: CD4RE megapool peptides (non-spike SARS-CoV-2 CD4 epitopes); dominant = recognized by 3 or more donors/different studies.
On to 2660 (GTWLTYTGAIKLDDK) [compound 2660], for which the Dominant entry was “Yes (more dominant epitopes are defined by being recognized by 3 or more donors/different studies)”. To 2661 (FKDQVILLNKHIDAY) [compound 2661] belongs “Yes (more dominant epitopes are defined by being recognized by 3 or more donors/different studies)”; to 2662 (ILLNKHIDAYKTFPP) [compound 2662], “Yes (more dominant epitopes are defined by being recognized by 3 or more donors/different studies)”.

Consider 2674 (QEEVQELYSPIFLIV) [compound 2674], for which the Dominant result was “Yes (more dominant epitopes are defined by being recognized by 3 or more donors/different studies)”.
